Tested on: Digitaria nuda
Assay: Test A: postemergence greenhouse control of Digitaria nuda, visual rating
Assay type: in vivo
Conditions: postemergence 3-4-leaf stage, 7 DAT, mean of 3 replicates
Experimental: Plastic pots (10-cm square) were filled to the rim with a sandy loam soil having pH of 6.1, 1.4% organic matter and a cation exchange capacity (CEC) of 5.7 milliequivalents per 100 grams (meq/100 g). The soil was tamped firm to a uniform level of 2.5 cm below the rim of each pot. A measured amount of seeds of Digitaria nuda were scattered on the soil surface. Seeded pots were covered with approximately 50 mL of the same planting soil and tamped. The pots were then placed in a greenhouse and watered thoroughly 2-3 times daily as needed. A balanced fertilizer solution was injected into the watering system to provide 218 ppm of nitrogen. Artificial lighting was used to supplement natural light to produce a 14 h photoperiod. Greenhouse temperatures were targeted for 28.8 ° C. in the day and 19.8 ° C. at night.
When the D. nuda plants reached the 3-4-leaf growth stage (8-12 cm height), the pots were sorted into test units for herbicide application. Treatments were replicated three times. The herbicides were diluted in a measured amount of water and then mixed using a magnetic stir bar for 10 minutes before aliquots were taken to make individual treatment solutions. Diuron was in the form of the DuPont product KARMEX, which is a wettable granule formulation containing 80 weight % active ingredient. Hexazinone was in the form of the DuPont product VELPAR DF, which is a wettable granule formulation containing 75 weight % active ingredient. A mixture of hexazinone and diuron in 11:39 weight ratio was in the form of the DuPont product VELPAR-K (VELPAR-K4) 60 WG, which is a wettable granule formulation containing 13.2 weight % hexazinone and 46.8 weight % diuron active ingredients. A mixture of hexazinone and diuron in 1:8 weight ratio was in the form of the DuPont product VELPAR-K8 (marketed in Brazil as ADVANCE Herbicide), which is a wettable granule formulation containing 6.7 weight % hexazinone and 53.3 weight % diuron active ingredients. Tembotrione was in the form of the Bayer product LAUDIS, which was a suspension concentrate formulation stated to contain […] tembotrione active ingredient and 22 g isoxadifen-ethyl (a herbicide safener) per liter. These products were applied alone and in combinations. Application rates of diuron and hexazinone were 1800 and 210 g ai ha^−1, respectively. The application rates of the VELPAR-K4 mixture of hexazinone and diuron (132 g a.i. hexazinone+468 g a.i. diuron/kg of formulated product) and VELPAR-K8 mixture of hexazinone and diuron (67 g a.i. hexazinone+533 g a.i. diuron/kg of formulated product) were 1200 and 1800 g total a.i. ha^−1, respectively. Application rates of tembotrione were 30, 60, 90 and 120 g a.i./ha. (“a.i.” means active ingredient.) The pots were then sprayed through a T-Jet 8002E nozzle using a stationary belt sprayer calibrated to deliver 281 L/ha at 276 kPa. Treatments were replicated three times.
The plants were returned to the greenhouse, and then control was visually evaluated relative to the control plants at 7 days after treatment (DAT). A numerical percent rating system was used to describe the response observed from each treatment on a scale of 0 to 100%, in which 0% indicates no response and 100% indicates plant death or near death. The reported results are the mean averages of the three replicates.
Colby's Equation was used to determine the herbicidal effects expected from the mixtures. […]

Structure (SMILES)	% Control Observed (diuron 1800 g a.i./ha (as KARMEX)) [%]	% Control Observed (tembotrione 30 g a.i./ha (as LAUDIS)) [%]	% Control Observed (tembotrione 60 g a.i./ha (as LAUDIS)) [%]	% Control Observed (tembotrione 90 g a.i./ha (as LAUDIS)) [%]	% Control Observed (tembotrione 120 g a.i./ha (as LAUDIS)) [%]
CN(C)C(=O)Nc1ccc(Cl)c(Cl)c1 [Diuron, N′(3,4-dichlorophenyl)-N,N-dimethylurea]	20	–	–	–	–
CS(=O)(=O)c1ccc(C(=O)C2C(=O)CCCC2=O)c(Cl)c1COCC(F)(F)F [Tembotrione, 2-[2-chloro-4-(methylsulfonyl)-3-[(2,2,2-trifluoroethoxy)methyl]-benzoyl]-1,3-cyclohexanedione]	–	37	40	53	60

— US20100317525A1, “HERBICIDAL MIXTURE” (E.I. DU PONT DE NEMOURS AND COMPANY, priority 2007, published 2010)
